Like-named read-outs stand apart in the source and are kept apart here.
Molecular target: T1, Menin-MLL (Homo sapiens, UniProt O00255)
T1 construct: His-Menin (M1-L615 end); purchased BIORTUS BP9210
T1 sequence (O00255 1-615 isoform O00255-1): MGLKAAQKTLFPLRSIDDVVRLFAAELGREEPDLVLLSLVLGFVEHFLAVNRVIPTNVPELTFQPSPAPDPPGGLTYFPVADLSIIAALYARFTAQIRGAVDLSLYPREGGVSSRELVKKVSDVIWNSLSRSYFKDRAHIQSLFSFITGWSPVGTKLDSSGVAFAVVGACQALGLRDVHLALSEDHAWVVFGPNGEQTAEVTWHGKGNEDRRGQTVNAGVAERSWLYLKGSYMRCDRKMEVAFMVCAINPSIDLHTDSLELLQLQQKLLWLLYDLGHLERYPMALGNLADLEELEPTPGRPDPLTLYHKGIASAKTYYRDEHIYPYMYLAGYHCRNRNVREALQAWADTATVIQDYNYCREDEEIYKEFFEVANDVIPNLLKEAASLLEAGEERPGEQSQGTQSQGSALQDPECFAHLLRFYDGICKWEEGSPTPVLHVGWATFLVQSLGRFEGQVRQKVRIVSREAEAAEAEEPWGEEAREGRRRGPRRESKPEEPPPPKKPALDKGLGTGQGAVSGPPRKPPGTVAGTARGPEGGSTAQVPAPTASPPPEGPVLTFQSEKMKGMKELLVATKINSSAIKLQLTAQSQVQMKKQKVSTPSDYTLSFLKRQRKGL
Assay: Inhibitory activity against Menin-MLL binding (fluorescence polarization)
Settings: 150 nM His-Menin, 15 nM FITC-MLL, 25°C for 60 min
Description: • His-Menin (M1-L615 end), purchased from BIORTUS, Catalog Number: BP9210; and • FITC-MLL4-43, purchased from GenScript, Catalog Number: C491HFF190-3/PE1324.
In a 10 µL reaction solution (20 mM HEPES, pH 7.5, 50 mM NaCl, 1 mM DTT, 0.01% BSA) containing any compound from the examples, 150 nM His-Menin was added to a 384-well plate (Corning, Model: 4514). Each concentration was set up in duplicate wells. After centrifugation at 1000 RPM for 1 min, the plate was incubated at 25°C for 15 min. Then, 15 nM […] (20 mM HEPES, pH 7.5, 50 mM NaCl, 1 mM DTT, 0.01% BSA) was added to a 384-well plate. After centrifugation at 1000 RPM for 1 min, the reaction proceeded at 25°C for 60 min. Changes in fluorescence polarization were measured using a plate reader (PerkinElmer, Envision 2104). Based on the measured signals, the binding inhibition rate of the compound at each concentration was calculated, and the IC50 (half-maximal inhibitory concentration) of the compound was determined using statistical analysis software GraphPad Prism (GraphPad Software, Inc.) by means of a nonlinear fitting formula: 4-Parameter Logistic Model or Sigmoidal Dose-Response Model: Y = Bottom + (Top−Bottom)/(1 + 10^((LogIC50−X) × Hill Slope)), [formula] in which X indicates the logarithm of compound concentration, Y indicates a fluorescence polarization mP value, and Top and Bottom indicate the maximum and minimum readouts of fluorescence polarization mP values. Table 1: Inhibitory Activity of Compounds Against Menin-MLL Binding

[1] = Menin-MLL IC50, fluorescence polarization
[2] = fluorescence polarization, read-out: Menin-MLL IC50

SMILES | IC50 [2] [µM] | IC50 [1] [µM]
CCN(C(=O)c1cc(F)ccc1-c1cc(N2CCN(C(=O)C3NC4CCC3CC4)CC2)cn2c(C)ncc12)C(C)C [Compound 59, N-ethyl-5-fluoro-2-(3-methyl-6-{4-[(1R,3S,4S)-2-azabicyclo[2.2.2]octan-3-carbonyl]piperazin-1-yl}imidazo[1,5-a]pyridin-8-yl)-N-(isopropyl)benzamide] |  | 0.023
CCN(C(=O)c1cc(F)ccc1-c1cc(C2(F)CCN(C[C@H]3CC[C@H](NS(=O)(=O)CC)CC3)C2)cc2c1cnn2C)C(C)C (stereo partly drawn) [Compound 61, N-ethyl-5-fluoro-2-[6-(3-fluoro-1-{[(1r,4r)-4-ethanesulfonamidocyclohexyl]methyl}pyrrolidin-3-yl)-1-methyl-1H-indazol-4-yl]-N-(isopropyl)benzamide] |  | 0.058
CCN(C(=O)c1cc(F)ccc1-c1cc(N2CCN(CC[C@H]3CC[C@H](NS(=O)(=O)CC)CC3)CC2)cn2c(C)ncc12)C(C)C [Compound 65, N-ethyl-5-fluoro-2-[3-methyl-6-(4-{2-[(1r,4r)-4-ethanesulfonamidocyclohexyl]ethyl}piperazine-1-yl)imidazo[1,5-a]pyridin-8-yl]-N-(isopropyl)benzamide] |  | 0.136
CCN(C(=O)c1cc(F)ccc1-c1cc(C2(F)CCN(C[C@]3(O)CC[C@@H](NS(=O)(=O)CC)CC3)C2)cc2c1cnn2C)C(C)C (stereo partly drawn) [Compound 68, N-ethyl-5-fluoro-2-[6-(3-fluoro-1-{[(1s,4s)-4-ethanesulfonamido-1-hydroxylcyclohexyl]methyl}pyrrolidin-3-yl)-1-methyl-1H-indazol-4-yl]-N-(isopropyl)benzamide] |  | 0.298
CCN(C(=O)c1cc(F)ccc1-c1cc(C2CCN(C[C@H]3CC[C@H](NS(=O)(=O)CC)CC3)C2)cn2c(C3CC3)ncc12)C(C)C (stereo partly drawn) [Compound 69, 2-[3-cyclopropyl-6-(1-{[(1r,4r)-4-ethanesulfonamidocyclohexyl]methyl}pyrrolidin-3-yl)imidazo[1,5-a]pyridin-8-yl]-N-ethyl-5-fluoro-N-(isopropyl)benzamide] |  | 0.222
CCN(C(=O)c1cc(F)ccc1-c1cc(C2=CCC(NCc3ccc(-c4cc(OC)c(OC)nn4)cc3)CC2)n2ccncc12)C(C)C (stereo not drawn) [Example 4, 2-{6-[4-({[4-(5,6-dimethoxypyridazin-3-yl)phenyl]methyl}amino)cyclohexyl-1-ene-1-yl]pyrrolo[1,2-a]pyrazin-8-yl}-N-ethyl-5-fluoro-N-isopropylbenzamide] | 0.0175 | 
CCN(C(=O)c1cc(F)ccc1-c1cc([C@@H]2CCN(C[C@H]3CC[C@H](NS(=O)(=O)CC)CC3)C2)nc2c1cnn2C)C(C)C [Example 11-1] |  | 0.744
CCN(C(=O)c1cc(F)ccc1-c1cc([C@H]2CCN(C[C@H]3CC[C@H](NS(=O)(=O)CC)CC3)C2)nc2c1cnn2C)C(C)C [Example 11-2, N-ethyl-5-fluoro-2-{1-methyl-6-[(3S)-1-{[(1r,4r)-4-ethanesulfonamidocyclohexyl]methyl}pyrrolidin-3-yl]-1H-pyrazolo[3,4-b]pyridin-4-yl}-N-(isopropyl)benzamide] |  | 0.0655
CCN(C(=O)c1cc(F)ccc1-c1cc([C@H]2CCN(C[C@H]3CC[C@H](NS(=O)(=O)CC)CC3)C2)cc2cncn12)C(C)C [Example 25-2, N-ethyl-5-fluoro-N-isopropyl-2-{7-[(3R)-1-{[(1r,4r)-4-ethanesulfonamidocyclohexyl]methyl}pyrrolidin-3-yl]imidazo[1,5-a]pyridin-5-yl}benzamide] |  | 0.021
CCN(C(=O)c1cc(F)ccc1-c1cc(N2CCC(NC[C@H]3CC[C@H](N4CCOC4=O)CC3)CC2)cc2c1cnn2C)C(C)C [Example 36, N-ethyl-5-fluoro-2-{1-methyl-6-[4-({[(1r,4r)-4-(2-oxo-1,3-oxazolidin-3-yl)cyclohexyl]methyl}amino)piperidin-1-yl]-1H-indazol-4-yl}-N-(isopropyl)benzamide] |  | 0.156
CCN(C(=O)c1cc(F)ccc1-c1cc(N2CCN(C(=O)C3NC4CCC3CC4)CC2)cn2c(C=O)ncc12)C(C)C [Example 76, N-ethyl-5-fluoro-2-(3-formyl-6-{4-[(1R,3S,4S)-2-azabicyclo[2.2.2]octan-3-carbonyl]piperazin-1-yl}imidazo[1,5-a]pyridin-8-yl)-N-(isopropyl)benzamide] |  | 0.04

The next lines start with results.

IC50 [2] [µM] | SMILES | IC50 [1] [µM]
0.093 | CCN(C(=O)c1cc(F)ccc1-c1cc(N2CCN(CCc3ccc(-c4cc(OC)c(OC)nn4)cc3)CC2)cn2c(C)ncc12)C(C)C [Compound 70, 2-[6-(4-{2-[4-(5,6-dimethoxypyridazin-3-yl)phenyl]ethyl}piperazin-1-yl)-3-methylimidazo[1,5-a]pyridin-8-yl]-N-ethyl-5-fluoro-N-(isopropyl)benzamide] | 
0.102 | C=C1C[C@@H]2CC[C@H]1[C@@H](C(=O)N1CCC(c3cc(-c4ccc(F)cc4C(=O)N(CC)C(C)C)c4cncn4c3)C1)N2 (stereo partly drawn) [Example 23, N-ethyl-5-fluoro-2-(6-{1-[(1S,3S,4R)-5-methylene-2-azabicyclo[2.2.2]octan-3-carbonyl]pyrrolidin-3-yl}imidazo[1,5-a]pyridin-8-yl)-N-(isopropyl)benzamide] | 
0.023 | CCN(C(=O)c1cc(F)ccc1-c1cc(C2CCN(CC3CCC(NC(=O)OC(C)(C)C)CC3)C2)cc2cncn12)C(C)C (stereo not drawn) [Example 24, N-(4-{[3-(5-{2-[ethyl(isopropyl)aminoformyl]-4-fluorophenyl}imidazo[1,5-a]pyridin-7-yl)pyrrolidin-1-yl]methyl}cyclohexyl)tert-butyl carbamate] | 
0.118 | CCN(C(=O)c1cc(F)ccc1-c1cc(C2CCN(C[C@H]3CC[C@H](N4CCOC4=O)CC3)C2)nc2c1cnn2C)C(C)C (stereo partly drawn) [Example 28] | 
0.275 | CCN(C(=O)c1cc(F)ccc1-c1cc(C2CCN(C(=O)[C@H]3N[C@@H]4CC[C@H]3C4)C2)cc2c1cnn2C)C(C)C (stereo partly drawn) [Example 31, 2-(6-{1-[(1R,3S,4S)-2-azabicyclo[2.2.1]heptan-3-carbonyl]pyrrolidin-3-yl}-1-methyl-1H-indazol-4-yl)-N-ethyl-5-fluoro-N-(isopropyl)benzamide] | 
0.168 | CCN(C(=O)c1cc(F)ccc1-c1cc(C2(F)CN(C(=O)[C@H]3N[C@@H]4CC[C@H]3C4)C2)cn2cncc12)C(C)C [Example 34, 2-(6-{1-[(1R,3S,4S)-2-azabicyclo[2.2.1]heptan-3-carbonyl]-3-fluoroazacyclobutan-3-yl}imidazo[1,5-a]pyridin-8-yl)-N-ethyl-5-fluoro-N-(isopropyl)benzamide] | 
0.128 | CCN(C(=O)c1cc(F)ccc1-c1cc(C2CCN(C(=O)[C@H]3N[C@@H]4CC[C@H]3C4)C2)cn2cncc12)C(C)C (stereo partly drawn) [Example 38, 2-(6-{1-[(1R,3S,4S)-2-azabicyclo[2.2.1]heptan-3-carbonyl]pyrrolidin-3-yl}imidazo[1,5-a]pyridin-8-yl)-N-ethyl-5-fluoro-N-(isopropyl)benzamide] | 
0.092 | CCN(C(=O)c1cc(F)ccc1-c1cc(C2CCN(Cc3ccc(N4CCOC4=O)cc3)C2)cn2cncc12)C(C)C (stereo not drawn) [Example 41] | 
0.0295 | CCN(C(=O)c1cc(F)ccc1-c1cc(C2CCN(CC3CCCCC3)C2)cn2cncc12)C(C)C (stereo not drawn) [Example 44] | 
0.0955 | CCN(C(=O)c1cc(F)ccc1-c1cc(C2CCN(C[C@H]3CC[C@H](NC(C)=O)CC3)C2)cn2cncc12)C(C)C (stereo partly drawn) [Example 45] | 
0.0625 | CCN(C(=O)c1cc(F)ccc1-c1cc(C2CCN(CC3CCN(c4nnc(C)o4)CC3)C2)cn2cncc12)C(C)C (stereo not drawn) [Example 46] | 
0.025 | CCN(C(=O)c1cc(F)ccc1-c1cc(C2CCN(C[C@H]3CC[C@H](N4CCOC4=O)CC3)C2)cn2cncc12)C(C)C (stereo partly drawn) [Example 47] | 
0.015 | CCN(C(=O)C(C)C)c1cc(F)ccc1-c1cc(N2CCN(C(=O)C3NC4CCC3CC4)CC2)cn2c(C)ncc12 [Example 71, N-ethyl-N-[5-fluoro-2-(3-methyl-6-{4-[(1R,3S,4S)-2-azabicyclo[2.2.2]octan-3-carbonyl]piperazin-1-yl}imidazo[1,5-a]pyridin-8-yl)phenyl]-2-methylpropionamide] | 
